Data published in article PMC7155171, “Probing the Open Global Health Chemical Diversity Library for Multistage-Active Starting Points for Next-Generation Antimalarials” (ACS Infectious Diseases, 2020).
pIC50: −log10 of the molar value.

Experiments:
[1] = system: P. berghei liver stage (PbLuc); experiment: P. berghei luciferase liver stage (PbLuc) assay in HepG2-A16-CD81 hepatocytes; type: cell-based, Plasmodium berghei; conditions: Plasmodium berghei; for pIC50: HepG2-A16-CD81, 12pt dose response, read-out: PbLuc 12pt dose response: IC50; for Emax: HepG2-A16-CD81, 48 h, 12pt dose response, maximum inhibition
[2] = HepG2 cytotoxicity screening (CellTiter-Glo); conditions: human, uninfected HepG2-A16-CD81 (EGFP) hepatocytes
[3] = system: HepG2-A16-CD81 hepatocytes; experiment: HepG2 cytotoxicity screening (CellTiter-Glo); conditions: 12pt dose response, maximum inhibition

Compound | pIC50 [1] | Emax [1] [%] | pIC50 [2] | inhibition at 2 µM [2] [%] | HepG2 cytotoxicity 12pt dose response: Maximum inhibition (%) [3] [%]
CN(CCc1ccncc1)CCc1nccs1 [UCSD-0805829] | 6.31 | 87.7 | < 4.30 | 2.05 | -1.84
CCn1ccnc1CNCC(c1ccc(C)s1)N1CCOCC1 (centres unmarked) [UCSD-0810145] | 4.42 | 88.9 | 4.34 | 16.3 | 56.3
CC(C)CC(=O)NCc1cccc(OCCN(C)C2CCOCC2)c1 [UCSD-0810838] | < 4.30 | 39.1 | < 4.30 | 38.8 | 7.9
Cc1n[nH]cc1CNC1CCN(c2cccc(C(F)(F)F)c2)CC1 [UCSD-0814169] | 5.03 | 88.9 | < 4.30 | -9.01 | 7.17
CCOc1ccccc1CNC(=O)NCC(c1cnn(C)c1)N(C)C (centres unmarked) [UCSD-0816742] | < 4.30 | 36.1 | < 4.30 | 13.9 | -5.65
Cc1cccc(NCc2ncc(C(C)(C)C)o2)c1 [UCSD-0816980] | 4.78 | 73.4 | < 4.30 | 14.1 | 11.5
CCc1ccccc1OC1CN(C(=O)c2ccnc(OC)c2)C1 [UCSD-0824378] | 4.78 | 80.5 | < 4.30 | 8.15 | 46.8
O=C(O)c1cccnc1N1CCN(Cc2ccc(F)cc2)C(CCO)C1 (centres unmarked) [UCSD-0826099] | < 4.30 | 46.3 | < 4.30 | 9.42 | 4.04
Cc1ccc2cc(C3(O)CCN(C(=O)CSC(C)C)CC3)ccc2n1 [UCSD-0827397] | 4.77 | – | < 4.30 | 33.3 | 39.9
COc1cccc(CN2CCC(CO)(Cc3ccc(Cl)cc3)CC2)c1O [UCSD-0828601] | 5.34 | 95 | 4.91 | 2.59 | 82.8
C[C@H](c1ccc(F)cc1)n1c(C2CCN(C)CC2)n[nH]c1=O [UCSD-0830237] | 5.48 | 86.3 | < 4.30 | 3.06 | 8.15
O=C(O)CSc1nnc(-c2cn[nH]c2)n1-c1ccccc1C(F)(F)F [UCSD-0830442] | 5.26 | – | < 4.30 | 6.23 | 4.76
COc1ccc(F)c(CN2CCCC(O)(CNCC(C)(C)C)C2=O)c1 (centres unmarked) [UCSD-0830878] | 4.35 | 86.4 | < 4.30 | 5.34 | -11.6
CN1CCCC(CCC(=O)N2CCc3sc(C(=O)N(C)C)cc3C2)C1 (centres unmarked) [UCSD-0833754] | < 4.30 | 38.7 | < 4.30 | -1.19 | 3.22
NC(=O)CCn1cc(CNCc2csc(N)n2)c2ccccc21 [UCSD-0835992] | < 4.30 | 17.4 | < 4.30 | 9.68 | 10.2
COc1ccccc1C1CCN(c2ccc3cc[nH]c3n2)CC1 [UCSD-0836069] | 5.45 | 93.5 | 4.50 | 5.11 | 60.6
Cc1n[nH]c(CN2CCN(c3ncnc4scc(C)c34)CC2)c1Cl [UCSD-0836325] | 5.35 | 96 | < 4.78 | 27.1 | 66.1
